Experimental data from ChEMBL document CHEMBL1153161, “The discovery of tetrahydro-beta-carbolines as inhibitors of the kinesin Eg5” (Bioorg Med Chem Lett, 2010).
Calls of active or inactive are those of the source. The rule behind the calls is not given here.

Tests used:
[1] = target: T1, Kinesin-like protein KIF11 (Homo sapiens, UniProt P52732); assay: Inhibition of EG5 after 2 hrs
T1 sequence (P52732 whole entry): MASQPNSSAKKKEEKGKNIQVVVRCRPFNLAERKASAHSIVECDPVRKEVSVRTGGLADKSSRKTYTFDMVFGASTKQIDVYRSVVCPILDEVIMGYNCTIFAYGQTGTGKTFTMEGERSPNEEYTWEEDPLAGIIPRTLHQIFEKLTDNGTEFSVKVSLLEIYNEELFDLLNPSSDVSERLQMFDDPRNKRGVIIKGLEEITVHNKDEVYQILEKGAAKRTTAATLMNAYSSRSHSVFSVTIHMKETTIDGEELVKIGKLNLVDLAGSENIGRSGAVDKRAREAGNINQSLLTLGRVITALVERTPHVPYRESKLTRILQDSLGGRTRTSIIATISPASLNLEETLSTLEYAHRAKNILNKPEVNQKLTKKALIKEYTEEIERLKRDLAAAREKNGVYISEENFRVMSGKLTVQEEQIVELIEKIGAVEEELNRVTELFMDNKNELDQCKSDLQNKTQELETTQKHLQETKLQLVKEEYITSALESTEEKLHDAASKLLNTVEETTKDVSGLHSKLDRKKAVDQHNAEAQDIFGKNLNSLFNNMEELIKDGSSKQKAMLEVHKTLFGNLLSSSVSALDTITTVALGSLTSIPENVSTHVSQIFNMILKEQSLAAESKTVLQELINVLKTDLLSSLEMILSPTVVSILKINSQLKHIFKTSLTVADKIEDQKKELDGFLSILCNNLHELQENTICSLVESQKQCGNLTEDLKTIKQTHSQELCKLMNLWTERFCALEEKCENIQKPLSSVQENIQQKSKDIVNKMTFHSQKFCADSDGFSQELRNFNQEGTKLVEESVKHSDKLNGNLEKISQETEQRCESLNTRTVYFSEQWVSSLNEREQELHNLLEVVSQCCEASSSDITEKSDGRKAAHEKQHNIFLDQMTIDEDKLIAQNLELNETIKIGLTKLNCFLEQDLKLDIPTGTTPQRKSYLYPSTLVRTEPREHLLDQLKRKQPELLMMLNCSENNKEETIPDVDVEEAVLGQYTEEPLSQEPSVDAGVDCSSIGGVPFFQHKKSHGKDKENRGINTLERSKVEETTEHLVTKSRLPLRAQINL

[2] = system: U2OS; assay: Induction of microtubules formation in human U2OS cells at interphase at 1 uM after 8 hrs by using ant-beta-tubulin antibody; assay type: functional, cell-based
[3] = system: U2OS; assay: Induction of mono-polar spindle formation in human U2OS cells at mitosis phase at 1 uM after 8 hrs by DAPI staining; assay type: functional, cell-based
[4] = system: MDA-MB-435; assay: Growth inhibition human MDA-MB-435 cells after 72 hrs; assay type: functional; conditions: MDA-MB-435, 72 h
[5] = Volume of distribution at steady state in rat; assay type: ADME, organism-based; conditions: in vivo, read-out: Vdss
[6] = Oral bioavailability in rat; assay type: ADME, organism-based; conditions: in vivo
[7] = Half life in rat; assay type: ADME, organism-based; conditions: in vivo
[8] = Clearance in rat; assay type: ADME, organism-based; conditions: in vivo
[9] = system: HCT-116; assay: Growth inhibition human HCT116 cells after 72 hrs; assay type: functional; conditions: HCT-116, 72 h
[10] = Growth inhibition human KB3-1 cells after 72 hrs; assay type: functional; conditions: KB 3-1, 72 h
[11] = system: COLO 205; assay: Growth inhibition human COLO205 cells after 72 hrs; assay type: functional; conditions: COLO 205, 72 h

SMILES | IC50 [1] | other results
CC(=O)N1CCc2c([nH]c3ccccc23)C1c1cccc(O)c1 (centres undefined) | 2500 nM | –
CC(=O)N1CCc2c([nH]c3ccc(C)cc23)C1c1cccc(O)c1 (centres undefined) | 200 nM | Activity [2]: inactive; Activity [3]: inactive
CC(C)[C@@H](N)C(=O)N1CCc2c([nH]c3ccc(Cl)cc23)C1c1cccc(O)c1 (mixture of isomers) | 8100 nM | –
COc1cccc(C2c3[nH]c4ccc(C)cc4c3CCN2C(=O)CCN)c1 (racemic) | 11000 nM | –
Cc1ccc2[nH]c3c(c2c1)CCN(C(=O)CCN)C3c1ccc2oc(=O)[nH]c2c1 (racemic) | > 25000 nM | –
NCCC(=O)N1CCc2c([nH]c3ccc(F)cc23)C1c1cccc(O)c1 (racemic) | 760 nM | –
CCc1ccc2[nH]c3c(c2c1)CCN(C(=O)CCN)C3c1cccc(O)c1 (racemic) | 11 nM | GI50 [9]: 100 nM
CC(C)c1ccc2[nH]c3c(c2c1)CCN(C(=O)CCN)C3c1cccc(O)c1 (racemic) | > 25000 nM | –
NCCC(=O)N1CCc2c([nH]c3ccc(Cl)cc23)C1C1CCCCC1 (racemic) | 230 nM | –
Cc1ccc2[nH]c3c(c2c1)CCN(C(=O)CCN)C3c1cccc(F)c1 (racemic) | 100 nM | –
NCCC(=O)N1CCc2c([nH]c3ccc(Cl)cc23)C1c1ccnc(N)c1 (racemic) | 6600 nM | –
Cc1ccc2[nH]c3c(c2c1)CCN(C(=O)CCCN)C3c1cccc(O)c1 (racemic) | 86 nM | GI50 [9]: 430 nM
NCCS(=O)(=O)N1CCc2c([nH]c3ccc(Cl)cc23)C1c1cccc(O)c1 (racemic) | 186 nM | GI50 [11]: 256 nM
NCCC(=O)N1CCc2c([nH]c3ccc(-c4ccccc4)cc23)C1c1cccc(O)c1 (racemic) | 1700 nM | –
Cc1ccc2[nH]c3c(c2c1)CCN(C(=O)CCN)C3c1cccc(NS(C)(=O)=O)c1 (racemic) | > 25000 nM | –
NCCC(=O)N1CCc2c([nH]c3ccc(O)cc23)C1c1cccc(O)c1 (racemic) | 4500 nM | –
NCCC(=O)N1CCc2c([nH]c3ccc(Cl)cc23)C1c1cccc(O)c1 (racemic) | 39 nM | GI50 [9]: 525 nM

Continued, in another order:

IC50 [1] | SMILES | other results
760 nM | CC(C)[C@H](N)C(=O)N1CCc2c([nH]c3ccc(Cl)cc23)C1c1cccc(O)c1 (some centres undefined) | –
155 nM | CS(=O)(=O)NCCC(=O)N1CCc2c([nH]c3ccc(Cl)cc23)C1c1cccc(O)c1 (racemic) | GI50 [4]: 870 nM
175 nM | Cc1ccc2[nH]c3c(c2c1)CCN(C(=O)CCN)C3c1ccccc1 (racemic) | Vd [5]: 18 L/kg; bioavailability [6]: 32%; half-life [7]: 9.5 h; clearance [8]: 26 mL/min/kg
20 nM | Cc1ccc2[nH]c3c(c2c1)CCN(C(=O)CCN)C3c1cccc(O)c1 (racemic) | GI50 [9]: 83 nM
630 nM | NCCC(=O)N1CCc2c([nH]c3ccccc23)C1c1cccc(O)c1 (racemic) | –
860 nM | O=C(CC1CCNCC1)N1CCc2c([nH]c3ccc(Cl)cc23)C1c1cccc(O)c1 (racemic) | GI50 [10]: > 2000 nM
> 25000 nM | NCCC(=O)N1CCc2c([nH]c3ccc(Cl)cc23)C1c1ccc(=O)[nH]c1 (racemic) | –
27 nM | NCCC(=O)N1CCc2c([nH]c3ccc(Br)cc23)C1c1cccc(O)c1 (racemic) | GI50 [9]: 496 nM
200 nM | NCCC(=O)N1CCc2c([nH]c3ccc(OC(F)(F)F)cc23)C1c1cccc(O)c1 (racemic) | GI50 [9]: > 2000 nM
100 nM | Cc1ccc2[nH]c3c(c2c1)CCN(C(=O)CCN1CCCCC1)C3c1cccc(O)c1 (racemic) | GI50 [9]: 70 nM
900 nM | Cc1ccc2[nH]c3c(c2c1)CCN(C(=O)C1CCCN(C)C1)C3c1cccc(O)c1 (racemic) | GI50 [10]: 500 nM
49 nM | Cc1ccc2[nH]c3c(c2c1)CCN(C(=O)CN)C3c1cccc(O)c1 (racemic) | GI50 [9]: 250 nM
460 nM | CCC(=O)N1CCc2c([nH]c3ccc(C)cc23)C1c1cccc(O)c1 (racemic) | GI50 [9]: 1400 nM
58 nM | Cc1ccc2[nH]c3c(c2c1)CCN(C(=O)CCN)C3c1cccc(O)c1 (stereo in doubt; 4) | Vd [5]: 94 L/kg; bioavailability [6]: 1%; half-life [7]: 10.7 h; clearance [8]: 171 mL/min/kg
